Values of other authors, collected in patent publication US20070122350A1, “Safe and effective methods of administering therapeutic agents” (Transave, Inc., priority 2005, published 2007).

Conditions: OSHA

SMILES: N.N.[Cl][Pt][Cl] [cisplatin, Cis-diamminedichloroplatinum(II)]
- legal airborne permissible exposure limit (PEL) (averaged over an eight-hour work shift): 2·10^−3 mg/m^3
- legal airborne permissible exposure limit (PEL), equivalent (per liter of air during 480 consecutive minutes): 2 ng/L
